US11130780B2, “Inhibitors of growth factor activation enzymes” (Washington University, priority 2015, dated 2021)

Assays:
thrombin = thrombin (Homo sapiens, UniProt P00734); assay: Chromogenic kinetic enzyme assay of thrombin; type: biochemical; settings: Table 4.1; read-out: Thrombin Ki
How it was run: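 Recombinant human thrombin (0.15 nM) or Factor Xa (0.35 nM) was mixed with 11-point inhibitor dilutions (0–20 μM, 2% DMSO) in TNC buffer, pH 8. Kinetic absorbance at 405 nm gave velocities. IC50 came from a four-parameter fit and Ki from Cheng–Prusoff.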

HGFA [1] = molecular target: T1, HGFA (Homo sapiens, UniProt Q04756); assay: Chromogenic kinetic enzyme inhibitor assay of HGFA; type: biochemical; settings: Table 4.1; chromogenic substrate Pefachrome FVIIa
T1 construct: His6 tag (N); seven amino acid spacer and seven amino acid TEV cleavage site (N); Honey Bee melittin signal peptide (N); made in house; host or cells: High 5 insect cells (baculovirus; virus raised in Sf9)
T1 sequence (Q04756 373-655): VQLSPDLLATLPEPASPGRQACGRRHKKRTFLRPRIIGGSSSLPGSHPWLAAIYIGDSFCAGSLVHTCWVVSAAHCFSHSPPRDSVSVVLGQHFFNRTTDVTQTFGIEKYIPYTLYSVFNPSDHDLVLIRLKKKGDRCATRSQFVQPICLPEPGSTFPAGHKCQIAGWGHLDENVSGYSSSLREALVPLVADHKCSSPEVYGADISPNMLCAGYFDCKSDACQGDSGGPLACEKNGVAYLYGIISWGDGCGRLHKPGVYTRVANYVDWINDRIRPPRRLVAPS
Text: This PCR product was cloned into the SfoI-HindIII sites of a modified pFastBac HT baculovirus expression vector (Addgene, Cambridge, Mass.). This vector contains a six amino His tag followed by a seven amino spacer and a seven amino acid TEV cleavage site placed immediately downstream of the Honey Bee melittin signal peptide. Using a modified Bac to Bac Expression System (Life Technologies, Carlsbad, Calif.), recombinant HGFA bacmids were obtained by transforming DH10Bac Escherichia coli cells. To obtain HGFA containing baculovirus, purified bacmids were transfected into Sf9 insect cells. After 5 days in culture at 27° C., media was harvested from transfected Sf9 cells. This media was used to prepare baculovirus infected insect cells (BIICs). These BIIICs were used to infect High 5 insect cells. Four days post infection, media was harvested and recombinant protein prepared as follows. Media was chilled to 4° C. and spun at 4000×g for 20 minutes (all subsequent steps were performed at 4° C. unless noted). […] Concentrated media was then buffer exchanged in two steps, five volumes of 50 mM Na-phosphate, 500 mM NaCl, pH 6.2, followed by five volumes of 50 mM Na-phosphate, 500 mM NaCl, pH 7.5. […] After mixing this slurry for 12 hours, nickel agarose beads were allowed to settle by gravity and then loaded into a column. Beads were washed with buffer (25 mM Na-phosphate, 500 mM NaCl, 25 mM imidazole, pH 8) and the bound protein eluted using (25 mM Na-phosphate, 500 mM NaCl, 250 mM imidazole, pH 8). Using a Amicon Ultra-4 Centrifugal filters (#UFC801008, Merck Millipore, Ltd., Tullagreen, Ireland), peak protein fractions were concentrated and run over a Superdex-200 10/300 GL column (GE Healthcare Life Sciences, Piscataway, N.J.) in 10 mM Tris, 200 mM NaCl, 0.2 mM EDTA, pH 8. HGFA containing fractions were pooled, concentrated, made 50% glycerol, and stored at minus 20° C. Protein was quantitated using a modified Lowry protein assay (#500-0006, Bio-Rad Laboratories, Hercules, Calif.).
Using Gen 5 2.00 software program (Biotek, Winnoski, Vt.), a four parameter curve fit was used to determine the inhibitor IC50s from a plot of the mean reaction velocity versus the inhibitor concentration. The IC50 values represent the average of three separate experimental determinations.

HGFA [2] = molecular target: T1, HGFA; assay: Biochemical assay for proteolysis of pro-HGF by HGFA; settings: immunoblot; inhibitors 0-12.5 μM; 1 nM HGFA
Description: (§1) In order to determine efficiency of our recombinant HGFA we performed a concentration response of HGFA using a fixed concentration of pro-HGF and pro-MSP.
(§2) After 30 minutes incubation at room temperature (25° C.), 25 ng of pro-HGF (R&D Systems, NKG011306A) was added. […] Proteins were transferred to Millipore Immobilon-P membranes (Billerica, Mass.) and then immunoblotted at 4° C. with anti-HGF antibody (R&D Systems, AF-294-NA) and HRP conjugated donkey anti-goat IgG (Santa Cruz, SC-2020) diluted 1:500 and 1:5000 in 5% milk/TBST (5% Carnation nonfat dried milk/10 mM Tris, 150 mM NaCl, 0.05% TWEEN 20, pH 8.0), respectively. Membranes were washed in TBST, immersed in Millipore Luminata Crescendo Westem-HRP Substrate for 5 minutes, and then exposures made on a BioRad ChemiDoc MP Imaging System (Hercules, Calif.). For pro-MSP proteolysis assays, the procedures were similar, except that the HGFA concentration was 75 nM, pro-MSP (R&D Systems ZN081306A) concentration was 50 ng per reaction, and 1:500 dilution of anti-MSP antibody (R&D Systems, AF352) was used for MSP detection during immunoblotting.

HGFA [3] = molecular target: T1, HGFA; assay: Biochemical assay for proteolysis of pro-MSP by HGFA; settings: immunoblot; inhibitors 0-12.5 μM
Description: as §1, §2

Factor Xa = Factor Xa (Homo sapiens, UniProt P00742); assay: Chromogenic kinetic enzyme assay of Factor Xa; type: biochemical; settings: Table 4.1; read-out: Factor Xa Ki
Description: Inhibitors (11-pt serial dilutions, 0-20 μM final concentration) were serially diluted in DMSO (2% DMSO final concentration) and then mixed with recombinant thrombin (0.15 nM final concentration) or Factor Xa (0.35 nM final concentration) in TNC buffer (25 mM Tris, 150 mM NaCl, 5 mM CaCl2, 0.01% TRITON X-100, pH 8) using clear 384 well plates. […] Changes in absorbance at 405 nm were measured over time in a Biotek Synergy 2 plate (Winnoski, Vt.). Using GraphPad Prism version 6.04 software program, (GraphPad Software, San Diego, Calif., www.graphpad.com), a four parameter curve fit was used to determine the inhibitor IC50s from a plot of the mean reaction velocity versus the inhibitor concentration. Ki values were calculated from the IC50 values using the Cheng and Prusoff equation (Ki=IC50/(1+[S]/Km).

[4] = system: RON phosphorylation in T47D cells; assay: RON phosphorylation sandwich ELISA in T47D cells; type: cell-based; settings: HGFA-mediated pro-MSP stimulation
Description: Detection and quantification of pRON in T47D cells was performed using a sandwich ELISA assay. RON capture antibody (R&D Systems, AF691) was immobilized on high protein binding 96-well plates. Next, cell lysates are added to wells, followed by incubation with an anti-phosphotyrosine-HRP antibody and then addition of a TMB substrate. Optical density of wells was determined by reading plates at 450 nm in a plate reader.

Chain of Factor Xa (P00742 235-488 limits assumed): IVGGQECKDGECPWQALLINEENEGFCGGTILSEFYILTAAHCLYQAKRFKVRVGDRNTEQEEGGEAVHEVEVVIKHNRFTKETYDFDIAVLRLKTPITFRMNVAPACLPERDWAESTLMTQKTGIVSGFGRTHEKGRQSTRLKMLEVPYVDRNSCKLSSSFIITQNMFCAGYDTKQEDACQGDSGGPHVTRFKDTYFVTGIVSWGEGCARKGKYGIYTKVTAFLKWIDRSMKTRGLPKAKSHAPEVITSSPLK
Chain of Factor Xa (P00742 41-179 partner limits assumed): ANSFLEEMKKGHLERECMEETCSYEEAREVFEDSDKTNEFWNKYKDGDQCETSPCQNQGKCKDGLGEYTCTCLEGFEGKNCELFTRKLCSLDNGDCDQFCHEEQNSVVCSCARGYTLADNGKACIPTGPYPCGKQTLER

Ki (thrombin)	IC50 (HGFA [1])	inhibition of pro-HGF activation by HGFA (HGFA [2])	inhibition of pro-MSP proteolysis by HGFA (HGFA [3])	Ki (Factor Xa)	SMILES	RON phosphorylation (pRON) [4]
> 20 µM	0.445 µM	dose-dependent inhibition	dose-dependent inhibition	0.17 µM	CC(=O)N[C@@H](CCCCN)C(=O)N[C@@H](CCC(N)=O)C(=O)N[C@@H](CC(C)C)C(=O)N[C@@H](CCCNC(=N)N)C(=O)c1nccs1 [Compound 5, Ac-KQLR(SEQ ID NO: 1)-kt]	
> 20 µM	0.47 µM			0.0788 µM	CC(=O)N[C@@H](CCCCN)C(=O)N[C@@H](CCC(N)=O)C(=O)N[C@@H](Cc1ccccc1)C(=O)N[C@@H](CCCNC(=N)N)C(=O)c1nccs1 [Compound 5c, Ac-KQFR(SEQ ID NO: 4)-kt]	
> 20 µM	0.27 µM			0.0081 µM	CC(=O)N[C@@H](CCCNC(=N)N)C(=O)N[C@@H](CCC(N)=O)C(=O)N[C@@H](CC(C)C)C(=O)N[C@@H](CCCNC(=N)N)C(=O)c1nccs1 [Compound 5e, Ac-RQLR(SEQ ID NO: 6)-kt]	
	0.225 µM	dose-dependent inhibition	dose-dependent inhibition		CC(=O)N[C@@H](CCCCN)C(=O)N[C@@H](CCCNC(=N)N)C(=O)N[C@@H](CC(C)C)C(=O)N[C@@H](CCCNC(=N)N)C(=O)c1nccs1 [Compound 5g, Ac-KRLR(SEQ ID NO: 8)-kt]	
	0.275 µM	dose-dependent inhibition	dose-dependent inhibition		CC(=O)N[C@@H](Cc1c[nH]c2ccccc12)C(=O)N[C@@H](CCCNC(=N)N)C(=O)N[C@@H](CC(C)C)C(=O)N[C@@H](CCCNC(=N)N)C(=O)c1nccs1 [Compound 5h, Ac-WRLR(SEQ ID NO: 9)-kt]	
> 20 µM	0.56 µM			3.06 µM	CC(=O)N[C@@H](CO)C(=O)N[C@@H](CCCCN)C(=O)N[C@@H](CC(C)C)C(=O)N[C@@H](CCCNC(=N)N)C(=O)c1nccs1 [Compound 6, Ac-SKLR(SEQ ID NO: 10)-kt]	
> 2 µM	0.52 µM			0.53 µM	CC(=O)N[C@@H](CO)C(=O)N[C@@H](CCCCN)C(=O)N[C@@H](Cc1ccccc1)C(=O)N[C@@H](CCCNC(=N)N)C(=O)c1nccs1 [Compound 6c, Ac-SKFR(SEQ ID NO: 13)-kt]	
	0.303 µM		dose-dependent inhibition		CC(=O)N[C@@H](CO)C(=O)N[C@@H](CCCNC(=N)N)C(=O)N[C@@H](CC(C)C)C(=O)N[C@@H](CCCNC(=N)N)C(=O)c1nccs1 [Compound 6e, Ac-SRLR(SEQ ID NO: 15)-kt]	
3.7 µM	0.435 µM			0.759 µM	CC(=O)N[C@@H](CO)C(=O)N[C@@H](Cc1c[nH]c2ccccc12)C(=O)N[C@@H](CC(C)C)C(=O)N[C@@H](CCCNC(=N)N)C(=O)c1nccs1 [Compound 6g, Ac-SWLR(SEQ ID NO: 17)-kt]	
	0.8 µM	dose-dependent inhibition	dose-dependent inhibition		N=C(N)c1ccc2cc(OC(=O)c3ccc(N=C(N)N)cc3)ccc2c1 [Nafamostat, reference compound]	reduces pRON to background levels
